Test results published in ChEMBL document CHEMBL4219065, “Progress in the Development of Preventative Drugs for Cisplatin-Induced Hearing Loss” (J Med Chem, 2018).

Experiments:
[1] = Terminal half life in rat; settings: in vivo
Homo sapiens = assay: Protection against cisplatin-induced ototoxicity in human assessed as reduction in hearing loss administered iv 35 mins prior to cisplatin treatment; format: functional; parameters: scale not given: the % may be the effect or the level left

Row | half-life [1] | SMILES | Activity (Homo sapiens)
1 | 34.2 min | [14CH3]SCC[C@@H](N)C(=O)O | 
2 |  | NCCCNCCSP(=O)(O)O [AMIFOSTINE] | 43%
